{"source": "patent US20070027175A1", "about": "“Antineoplastic activities of ellipticine and its derivatives” (priority 2005, published 2007)", "tested_on": "myeloma cell lines ARK, KMS11, RPMI 8226, and U266", "assay": "In vitro screening of DTP compounds on myeloma cell lines (CellTiter-Glo)", "format": "cell-based, human", "set-up": "effect on myeloma cell growth among tested ellipticine derivatives: dose or concentration left out as unconfirmed", "procedure": "Eight myeloma cell lines were contacted with the antineoplastic agents to be tested in ninety six well culture plates. […]\nMyeloma cell lines were maintained at >90% viability at 37° C. and 5% CO2. Cells were diluted to 20,000 cells/ml in fresh medium. A 50-μl aliquot of cell suspension was seeded in 96-well tissue culture plates to final cell counts of 1,000 cells/well. All compounds obtained from NCI's Developmental Therapeutics Program (DTP compounds) were dissolved in 100% dimethylsulfoxide (DMSO) (Sigma-Aldrich, St. Louis, Mo.) at 1 mg/ml and further diluted in fresh medium to 1 μg/ml. Each compound (50-μl aliquots) was distributed to a well containing 1,000 myeloma cells. Each plate included controls with addition of only medium or only DMSO (0.5% final concentration). All experiments were conducted in triplicate.\nUsing CellTiter-Glo Luminescent Assay kit (Promega, Madison, Wis.) according to manufacturer's instructions, cell viability was assayed every 24 hours after addition of DTP compound for 5 days. Briefly, the CellTiter-Glo substrate was dissolved in buffer, and 100 μl was added to each well. […] The statistic sampling distribution for each compound per cell line was based on sample of n=15 measurements.\nOther ellipticine derivatives from the DTP (at 0.5 mM final concentration) were used to screen the same four myeloma cell lines.", "note": "“Also recorded” adds a separate entry of the source.", "data": [{"molecule": "Cc1c2ccncc2c(C)c2c1[nH]c1ccc(OCCN(C)C)cc12", "note": "[NSC 338258, ellipticine, 9-dimethyl amino-ethoxy-]", "values": [{"measurement": "inhibition of cell viability in four myeloma cell lines", "setting": "0.5 mg/ml, every 24 hours over 5 days", "value": "most significantly inhibited cell viability; also recorded: significant anti-myeloma effect"}, {"measurement": "effect on myeloma cell growth among tested ellipticine derivatives", "setting": "four myeloma cell lines", "value": "best among the tested ellipticine derivatives"}, {"measurement": "effective invitro dosage (cell growth inhibition)", "setting": "myeloma cell lines", "value": 0.2, "unit": "µM"}]}]}
